Among the test systems are DMS 114 small cell lung; M19-MEL melanoma; DLD-1 colon; DMS 273 small cell lung; HOP-18 NSCLC; MDA-N; KM20L2 colon; SNB-78 CNS; RXF-631 renal.
Common to all, as to experiment: inhibition of tumour cell growth, NCI panel, 48 h

Molecules are shown by their SMILES.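 Five concentrations, 48 hours, 96-well plates. Abbreviation: GI50, concentration required for 50% inhibition of growth. TGI is the concentration that stops growth completely.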

In the case of `O=c1c(-c2ccccc2)c2oc(c1-c1ccccc1)CS(=O)(=O)CCC2`, the TGI in the assay on DMS 114 small cell lung is more than 100 µM; with M19-MEL melanoma, 30.7 µM; with DLD-1 colon, 58.8 µM; with DMS 273 small cell lung, 58.3 µM; in the assay with HOP-18 NSCLC it was more than 100 µM.
`CCC(=O)C1(c2ccccc2)CCN(C)CC1` registered a TGI in the assay on MDA-N of more than 100 µM.
As to `CCOC(=O)C[C@@H](C)[C@]1(C(=O)OC)CCCC1=O`, the TGI in the assay with DMS 114 small cell lung was more than 58.9 µM; with M19-MEL melanoma, more than 100 µM; with DLD-1 colon it was more than 71.3 µM; in the assay on KM20L2 colon, more than 100 µM; in the assay on DMS 273 small cell lung, more than 100 µM; with SNB-78 CNS it was more than 100 µM. The compound also gave a TGI in the assay on HOP-18 NSCLC of more than 100 µM.
For `COCc1c(CO)cnc(C)c1OC1OC(CO)C(O)C(O)C1O` (stereo not drawn), the TGI with DMS 114 small cell lung, with M19-MEL melanoma, in the assay on DLD-1 colon, with KM20L2 colon and in the assay with DMS 273 small cell lung was more than 100 µM throughout.
Regarding `COc1cc2c(c(OC)c1O)-c1ccc(OC)c(=O)cc1[C@@H](NC(=O)C(F)(F)F)CC2`, the TGI in the assay with MDA-N is 0.0628 µM.
Turning to `COc1cccc(NC(=O)C(C)(C)C)c1C=O`, the TGI in the assay with RXF-631 renal, in the assay on DMS 114 small cell lung, in the assay with M19-MEL melanoma, in the assay with DLD-1 colon, with KM20L2 colon and in the assay with SNB-78 CNS was more than 100 µM each time. Further, the TGI in the assay on HOP-18 NSCLC is more than 100 µM.
`CCN(CC)CC.CCOc1ccc(NC(=O)N=C=[N-])cc1.[CH-]1CCCCC1.[CH-]1CCCCC1.[CH-]1CCCCC1.[Cl-].[Sn+4]`: the GI50 with RXF-631 renal is 0.0202 µM; with DMS 114 small cell lung it was 0.0214 µM; with M19-MEL melanoma, 0.0208 µM; in the assay with MDA-N, 0.0205 µM; in the assay on DLD-1 colon, 0.018 µM; in the assay on KM20L2 colon, 0.0229 µM. The GI50 in the assay on DMS 273 small cell lung is 0.0185 µM; in the assay on SNB-78 CNS it was 0.0472 µM; in the assay on HOP-18 NSCLC, 0.0135 µM. In addition, the TGI was determined as 0.0648 µM in the assay on RXF-631 renal; 0.0594 µM with DMS 114 small cell lung; 0.0513 µM in the assay with M19-MEL melanoma; 0.0471 µM in the assay with MDA-N; 0.0478 µM in the assay on DLD-1 colon; 0.0505 µM with KM20L2 colon. In addition, the TGI amounted to 0.0482 µM with DMS 273 small cell lung, 0.373 µM in the assay with SNB-78 CNS and 0.0376 µM in the assay on HOP-18 NSCLC.
Take `C=CC(=O)N1C/C(=C\c2ccccc2)C(=O)/C(=C/c2ccccc2)C1`: the TGI in the assay on DMS 114 small cell lung stood at 2.73 µM; with M19-MEL melanoma it was 2.48 µM; with MDA-N, 1.07 µM; in the assay with DLD-1 colon, 1.15 µM; with KM20L2 colon, 3.1 µM; in the assay with DMS 273 small cell lung it was 2.13 µM. Besides, in the assay on HOP-18 NSCLC, the TGI worked out at 9.97 µM. The GI50 in the assay on MDA-N was 0.427 µM.
Take `CCCCCCCCCCCCCCCCOCC(CN(C)CCN(C)C)OCCCCCCCCCCCCCCCC` (stereo not drawn): the TGI in the assay on RXF-631 renal, in the assay with DMS 114 small cell lung, in the assay on M19-MEL melanoma, in the assay on DLD-1 colon, in the assay on KM20L2 colon and with DMS 273 small cell lung was more than 100 µM each time. Further, the TGI in the assay on SNB-78 CNS and in the assay on HOP-18 NSCLC was more than 100 µM throughout.
For `COc1c2ccoc2cc2oc(=O)ccc12`, the TGI in the assay with MDA-N is more than 100 µM.
For the compound `Cc1ccc(-n2c3nc(=O)n(C)c(=O)c-3nc3ccccc32)cc1`, the TGI in the assay on DMS 114 small cell lung is 27.6 µM; in the assay with DLD-1 colon, more than 100 µM; in the assay with KM20L2 colon, 26.3 µM; in the assay on DMS 273 small cell lung, 20.1 µM; in the assay on SNB-78 CNS, more than 100 µM; in the assay with HOP-18 NSCLC it was 40.4 µM.
In the case of `Nc1nc(Cl)cc(NCCCCCNc2cc(Cl)nc(N)n2)n1`, the TGI is more than 100 µM in the assay with RXF-631 renal; more than 100 µM with DLD-1 colon; more than 100 µM in the assay with KM20L2 colon; more than 100 µM in the assay on DMS 273 small cell lung; 88 µM in the assay on SNB-78 CNS; more than 100 µM in the assay with HOP-18 NSCLC.
Consider `N.N.N.N.O=NN1CCCCCC1(P(=O)([O-])[O-])P(=O)([O-])[O-].[Pt+4].[Pt+4]`, for which the GI50 in the assay on DLD-1 colon, in the assay with KM20L2 colon, with DMS 273 small cell lung and in the assay with HOP-18 NSCLC was more than 100 µM in each case. The TGI with DLD-1 colon, with KM20L2 colon, with DMS 273 small cell lung and in the assay on HOP-18 NSCLC was more than 100 µM in each case.
For the compound `CC(=O)NC(CCCCN(Cc1ccccc1)C(=O)NCCCl)C(=O)NCc1ccccc1` (stereo not drawn), the TGI with RXF-631 renal, with DMS 114 small cell lung, with DLD-1 colon, in the assay on KM20L2 colon, with DMS 273 small cell lung and in the assay with HOP-18 NSCLC was more than 100 µM each time.
In turn, `CCCOc1ccc(-c2nc(-c3ccc(N=Cc4ccc(N(CCOS(C)(=O)=O)CCOS(C)(=O)=O)cc4C)cc3)cs2)cc1` showed a TGI with MDA-N of more than 85 µM.
For the compound `O=C1OC(c2ccccc2)=N/C1=C\c1ccc2ccccc2c1`, the TGI in the assay with DMS 114 small cell lung, in the assay on M19-MEL melanoma, in the assay on DLD-1 colon, with KM20L2 colon, in the assay on SNB-78 CNS and in the assay on HOP-18 NSCLC was more than 100 µM each time.
Turning to `C=CCCCn1ccc2ccccc21`, the TGI in the assay with RXF-631 renal, in the assay with DMS 114 small cell lung, with M19-MEL melanoma, in the assay with DLD-1 colon, in the assay with KM20L2 colon and in the assay with HOP-18 NSCLC was more than 100 µM throughout.
With `O=C(Cc1nc2ccccc2s1)Nc1ccc(Cl)cc1`, the TGI with M19-MEL melanoma, with DLD-1 colon, with KM20L2 colon, in the assay with DMS 273 small cell lung and in the assay with SNB-78 CNS was more than 100 µM throughout.
As to `O=C(NCCO)c1cc2c(cn1)[nH]c1ccccc12`, the TGI in the assay with RXF-631 renal, in the assay with DMS 114 small cell lung, in the assay with DLD-1 colon, in the assay on KM20L2 colon, in the assay on DMS 273 small cell lung and in the assay with SNB-78 CNS was more than 100 µM each time.
As to `O=C(O)C1=C(C(=O)Nc2ccccc2)C2C=CC1C2` (stereo not drawn), the TGI with DMS 114 small cell lung, in the assay with M19-MEL melanoma, with DLD-1 colon, in the assay with KM20L2 colon, in the assay with DMS 273 small cell lung and in the assay on SNB-78 CNS was more than 100 µM each time. This compound also yielded a TGI with HOP-18 NSCLC of more than 100 µM.
